The NIST ThermoML archive (doi:10.1021/je060002k)
± gives the expanded uncertainty stated by the source. Blank lines part the entries; values can stand above or below the compound they belong to.

Settings: Liquid

vapor or sublimation pressure (341.85 K): 101.33 ± 3 kPa
Compound: CCCCCC [hexane]

vapor or sublimation pressure (351.45 K): 101.33 ± 3 kPa
Compound: CCO [ethanol]

Compound: Cc1ccccc1 [toluene]
vapor or sublimation pressure (383.75 K): 101.33 ± 3 kPa

vapor or sublimation pressure (372.35 K): 101.33 ± 3 kPa
Compound: CC(C)CC(C)(C)C [2,2,4-trimethylpentane]
